Assay results taken from publication PMC6731340, “Evaluation of synergy between host and pathogen-directed therapies against intracellular Leishmania donovani” (International Journal for Parasitology: Drugs and Drug …, 2019).
Like-named read-outs stand apart in the source and are kept apart here.

How the values were obtained:
[1] = test system: L. donovani extracellular promastigotes; assay: Resazurin-based drug susceptibility assay on promastigotes; assay type: cell-based; settings: Leishmania donovani, 72 h drug at 25 °C
Method: (§1) Leishmania donovani strain (ATCC 30030; ATCC; Manassas VA) was used in all studies and grown via manufacture's specification. The promastigotes screening were performed as described previously, with few modifications ([Kulshrestha et al., 2013]). Late log-phase promastigotes (1 × 10^5 per one 96-well) were incubated with drug for 72 h at 25 °C. Resazurin was added [0.002% (w/v)], incubated for 24 h and assessed fluorometrically (ex: 544 nm/em: 590 nm; SpectraMax M2, Molecular Devices, Sunnyvale, CA). L. donovani axenic amastigotes were differentiated as described previously, with little modification ([Ephros et al., 1997]). Late log-phase promastigotes were differentiated into axenic amastigotes in a low pH (6.3) medium for 96 h at 37 °C. Fully differentiated axenic amastigotes (2 × 10^5 per one 96-well) were incubated 72 h with drug at 37 °C, and resazurin assay was then performed as indicated above.

[2] = test system: L. donovani axenic amastigotes; assay: Resazurin-based drug susceptibility assay on axenic amastigotes; assay type: cell-based; settings: Leishmania donovani, 72 h drug at 37 °C
Method: as §1

[3] = test system: L. donovani intracellular amastigotes; assay: Image-based (Giemsa) evaluation of intracellular anti-leishmanial activity in infected BMDMs; assay type: cell-based; settings: Leishmania donovani, BMDM, 72 h, Giemsa stain
Method: An image-based anti-leishmanial assay was used as described previously with slight modification ([Collier et al., 2016]). BMDMs seeded on round glass coverslips (5 × 10^5 cells per one 24-well) were allowed to adhere overnight, infected with stationary phase L. donovani promastigotes (MOI 1:10), incubated overnight, and washed (3×) with warmed serum-free media. Compounds were added, incubated for 72 h, washed (3×) with PBS, fixed with methanol and stained with Giemsa stain (1:20 in H2O). An EVOS XL (100×, Thermo Fisher Scientific) was used for imaging. L. donovani amastigotes per 100 macrophages was determined, in duplicate, and in a blinded fashion.

[4] = test system: L. donovani intracellular amastigotes; assay: Modified resazurin-based viability analysis of L. donovani in infected macrophages; assay type: cell-based, Leishmania donovani; settings: for Selectivity (LD50/IC50): LD50 macrophages / resazurin intracellular IC50; for IC50: Leishmania donovani, BMDM, infected BMDMs, 72 h
Method: BMDMs (1 × 10^5 per one 96-well) infected overnight with stationary phase L. donovani promastigotes (MOI 1:10), were washed (3×) with serum free DMEM, and incubated with compounds for 72 h. Then, parasites were rescued with BMDM controlled lysis, modified from a previous report ([Kiderlen and Kaye, 1990]). In brief, cells were washed with serum-free HEPES-buffered RPMI (HEPES-RPMI; 1×), lysed (20 min) with HEPES-RPMI (100 μL/well) with 0.008% SDS (w/v), SDS neutralized with HEPES-RPMI with 17% FBS (v/v; 150 μL/well) and placed in an air-tight container (25 °C for 96 h). Resazurin [0.02% (w/v); 25 μL] was added, incubated (24 h) and was assessed fluorometrically.

[5] = test system: Mouse bone marrow-derived macrophages (BMDMs); assay: LDH mammalian cytotoxicity assay; settings: 50% Lethal Dose for BMDMs
Source text: (§2) Mouse bone marrow-derived macrophages (BMDMs) isolation from BALB/c mice and culture was done as described previously ([Weischenfeldt and Porse, 2008]), and approved by the Animal Care and Use Committees at UNC. A lactate dehydrogenase (LDH) assay (Thermo Fisher Scientific, Grand Island, NY) was used to determine cytotoxicity per manufacturer's directions.

[6] = test system: Mouse bone marrow-derived macrophages (BMDMs); settings: BALB/c
Source text: as §2

[7] = test system: VL patients; parameters: method as in Sundar et al., 2008; settings: AMB alone; ref Sundar et al., 2008; cited from earlier work
[8] = test system: intracellular L. mexicana; parameters: method as in Pan et al., 2012; settings: ref Pan et al., 2012; read-out: IC50, anti-leishmanial activity against intracellular L. mexicana; cited from earlier work
[9] = test system: promastigotes; parameters: method as in Pan et al., 2012; settings: ref Pan et al., 2012; read-out: IC50, direct activity against promastigotes; cited from earlier work
[10] = parameters: method as in earlier work; settings: ref Mishra and Singh, 2013; Perez-Victoria et al., 2006; Seifert et al., 2007; cited from earlier work
[11] = test system: L. donovani amastigotes; parameters: method as in De Muylder et al., 2011; settings: intracellular vs axenically grown amastigotes; ref De Muylder et al., 2011; cited from earlier work

Structure (SMILES)	IC50 [1]	IC50 [2]	IC50 [3]	Selectivity (LD50/IC50) [4]	IC50 [4]	Cytotoxicity LD50 [5]	Cytotoxicity LD50 [6]	VL patients cured [7]	IC50 [8]	IC50 [9]	drug half-life [10]	anti-leishmanial activity [11]
NCC(=O)Nc1ccc(-n2nc(C(F)(F)F)cc2-c2ccc3c(ccc4ccccc43)c2)cc1 [AR-12]	3.3 ± 0.42 µM	3.45 ± 0.07 µM	1.18 ± 0.18 µM	8	1.44 ± 0.08 µM	11.1 ± 2.5 µM	–	–	–	–	–	–
C[C@@H]1[C@H](O)[C@@H](C)/C=C/C=C/C=C/C=C/C=C/C=C/C=C/[C@H](O[C@@H]2O[C@H](C)[C@@H](O)[C@H](N)[C@@H]2O)C[C@@H]2O[C@](O)(C[C@@H](O)C[C@@H](O)[C@H](O)CC[C@@H](O)C[C@@H](O)CC(=O)O[C@H]1C)C[C@H](O)[C@H]2C(=O)O [Amphotericin B, amphotericin B]	0.047 ± 0.004 µM	0.049 ± 0.005 µM	0.024 ± 0.001 µM	1167	0.033 ± 0.011 µM	–	38.5 ± 4.95 µM	91%	–	–	–	–
CC(=O)C1=CC[C@H]2[C@@H]3CCC4=CC(=O)CC[C@]4(C)[C@H]3C[C@@H](O)[C@]12C [DNER, 6,7-dihydroneridienone]	–	–	–	–	–	–	–	–	1400 nM	9200 nM	–	–
CCCCCCCCCCCCCCCCOP(=O)([O-])OCC[N+](C)(C)C [Miltefosine, miltefosine]	5.4 ± 0.42 µM	–	1.1 ± 0.37 µM	–	0.55 ± 0.15 µM	62.5 ± 4.95 µM	–	–	–	–	~150 h	–
NC[C@@H]1O[C@H](O[C@H]2[C@@H](O)[C@H](O[C@@H]3[C@@H](O)[C@H](N)C[C@H](N)[C@H]3O[C@H]3O[C@H](CO)[C@@H](O)[C@H](O)[C@H]3N)O[C@@H]2CO)[C@H](N)[C@@H](O)[C@@H]1O [Paromomycin, paromomycin]	59 ± 5.66 µM	22 ± 4.24 µM	15.2 ± 4.67 µM	>68	11.6 ± 0.42 µM	>800 µM	–	–	–	–	–	–
C=CCN1CC[C@]23c4c5ccc(O)c4O[C@H]2/C(=N/N=C2\CC[C@@]4(O)[C@H]6Cc7ccc(O)c8c7[C@@]4(CCN6CC=C)[C@H]2O8)CC[C@@]3(O)[C@H]1C5 [naloxonazine]	–	–	–	–	–	–	–	–	–	–	–	found only against intracellular L. donovani amastigotes
